Results reported in PubChem BioAssay AID248 (DTP/NCI, 2004).
Values joined by “and” are separate entries in the source; they are usually repeats but may differ in a detail not shown here. Equal entries are not always repeated. Toxic doses and inconclusive results are not listed. Rule as the data show it: active = T/C of 150% or more; inactive = T/C below 125%.

System: L1210 leukemia ip in BDF1 mice, survival T/C
Assay: NCI In Vivo Anticancer Drug Screen. Data for tumor model L1210 Leukemia (intraperitoneal) in B6D2F1 (BDF1) mice
Details: endpoint: mean survival time, higher = longer survival
Procedure, shortened: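 Read-out is survival time, reported as the treated-group measurement over the vehicle-control measurement.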

[1] = dose: 100.0 mg/kg/injection, schedule: Q04DX003 (ip), vehicle: saline
[2] = dose: 100.0 mg/kg/injection, schedule: Q04DX003 (ip), vehicle: saline with Tween-80
[3] = dose: 200.0 mg/kg/injection, schedule: Q04DX003 (ip), vehicle: saline with Tween-80
[4] = dose: 400.0 mg/kg/injection, schedule: Q04DX003 (ip), vehicle: saline with Tween-80
[5] = dose: 100.0 mg/kg/injection, schedule: Q04DX003 (ip), vehicle: Klucel (hydroxypropylcellulose) (HPC)
[6] = dose: 200.0 mg/kg/injection, schedule: Q04DX003 (ip), vehicle: Klucel (hydroxypropylcellulose) (HPC)
[7] = dose: 400.0 mg/kg/injection, schedule: Q04DX003 (ip), vehicle: Klucel (hydroxypropylcellulose) (HPC)
[8] = dose: 200.0 mg/kg/injection, schedule: Q04DX003 (ip), vehicle: saline
[9] = dose: 400.0 mg/kg/injection, schedule: Q04DX003 (ip), vehicle: saline
[10] = dose: 100.0 mg/kg/injection, schedule: Q01DX009 (ip), vehicle: Klucel (hydroxypropylcellulose) (HPC)
[11] = dose: 200.0 mg/kg/injection, schedule: Q01DX009 (ip), vehicle: Klucel (hydroxypropylcellulose) (HPC)
[12] = dose: 400.0 mg/kg/injection, schedule: Q01DX009 (ip), vehicle: Klucel (hydroxypropylcellulose) (HPC)
[13] = dose: 100.0 mg/kg/injection, schedule: Q01DX001 (ip), vehicle: saline
[14] = dose: 100.0 mg/kg/injection, schedule: Q01DX009 (ip), vehicle: saline

Measured: T/C

CN(N)C=O
inactive: dose: 75.0 mg/kg/injection, schedule: Q01DX001 (ip), vehicle: saline 100 % of control | [1] 108 % of control | dose: 150.0 mg/kg/injection, schedule: Q01DX001 (ip), vehicle: saline 96 % of control | dose: 300.0 mg/kg/injection, schedule: Q01DX001 (ip), vehicle: saline 98 % of control

O=C(O)c1ccc(Br)c2ccccc12
inactive: dose: 75.0 mg/kg/injection, schedule: Q01DX001 (ip), vehicle: carboxymethylcellulose (CMC) 95 % of control | dose: 150.0 mg/kg/injection, schedule: Q01DX001 (ip), vehicle: carboxymethylcellulose (CMC) 98 % of control

COc1cc(Oc2c(OC)cc(/C(C)=N/O)cc2OC)cc(OC)c1OC
inactive: [2] 105 % of control | [3] 92 % of control | [4] 95 % of control

CCCNC(=O)Oc1c(C(C)C)ccc(C)c1Cl
inactive: dose: 100.0 mg/kg/injection, schedule: Q01DX009 (ip), vehicle: saline with Tween-80 108 % of control | dose: 200.0 mg/kg/injection, schedule: Q01DX009 (ip), vehicle: saline with Tween-80 88 % of control | dose: 400.0 mg/kg/injection, schedule: Q01DX009 (ip), vehicle: saline with Tween-80 95 % of control

CCOC(=O)NC(C)c1cccc2ccccc12 (configuration not stated)
inactive: [5] 93 % of control | [6] 97 % of control | [7] 90 % of control

CCN(CC)C(=S)[S][Sn]([Cl])([c]1ccccc1)[c]1ccccc1
inactive: dose: 5.0 mg/kg/injection, schedule: Q01DX001 (ip), vehicle: other 102 % of control | dose: 10.0 mg/kg/injection, schedule: Q01DX001 (ip), vehicle: other 104 % of control | dose: 20.0 mg/kg/injection, schedule: Q01DX001 (ip), vehicle: other 102 % of control | dose: 40.0 mg/kg/injection, schedule: Q01DX001 (ip), vehicle: other 102 % of control | dose: 80.0 mg/kg/injection, schedule: Q01DX001 (ip), vehicle: other 104 % of control

CCCCCCCCCCCCCCCCOB(OCCCCCCCCCCCCCCCC)OCCCCCCCCCCCCCCCC
inactive: [5] 91 % of control | [6] 96 % of control | [7] 94 % of control

CC1=NCCN=C(C)CC(C)(C)[N-]CC[N-]C(C)(C)C1.[Cl-].[Cl-].[Co+3].[O-][Cl+3]([O-])([O-])O
inactive: dose: 150.0 mg/kg/injection, schedule: Q04DX002 (ip), vehicle: Klucel (hydroxypropylcellulose) (HPC) 97 % of control | dose: 300.0 mg/kg/injection, schedule: Q04DX002 (ip), vehicle: Klucel (hydroxypropylcellulose) (HPC) 94 % of control

CC(C)(C(=O)O)c1ccccc1
inactive: dose: 100.0 mg/kg/injection, schedule: Q01DX001 (ip), vehicle: saline with Tween-80 96 % of control | dose: 200.0 mg/kg/injection, schedule: Q01DX001 (ip), vehicle: saline with Tween-80 96 % of control | dose: 400.0 mg/kg/injection, schedule: Q01DX001 (ip), vehicle: saline with Tween-80 96 % of control

FC(F)(F)c1nn[nH]n1
inactive: [2] 101 % of control | [3] 108 % of control | [4] 103 % of control

CNc1nnnn1Cc1ccccc1
inactive: [1] 105 % of control | [8] 94 % of control | [9] 97 % of control

CC(=O)/C(=C/c1ccccc1)c1ccccc1
inactive: dose: 75.0 mg/kg/injection, schedule: Q01DX009 (ip), vehicle: Klucel (hydroxypropylcellulose) (HPC) 95 % of control | dose: 75.0 mg/kg/injection, schedule: Q04DX003 (ip), vehicle: Klucel (hydroxypropylcellulose) (HPC) 104 % of control | dose: 150.0 mg/kg/injection, schedule: Q01DX009 (ip), vehicle: Klucel (hydroxypropylcellulose) (HPC) 106 % of control | dose: 150.0 mg/kg/injection, schedule: Q04DX003 (ip), vehicle: Klucel (hydroxypropylcellulose) (HPC) 100 % of control | dose: 300.0 mg/kg/injection, schedule: Q01DX009 (ip), vehicle: Klucel (hydroxypropylcellulose) (HPC) 102 % of control | dose: 300.0 mg/kg/injection, schedule: Q04DX003 (ip), vehicle: Klucel (hydroxypropylcellulose) (HPC) 104 % of control

Cc1ccc(NC(=S)NNC(=S)NNc2ccccc2)cc1C
inactive: [10] 90 % of control | [2] 89 % of control | [11] 102 % of control | [3] 93 % of control | [12] 103 % of control | [4] 91 % of control

COCC(=O)OCCCCCOC(=O)COC
inactive: dose: 50.0 mg/kg/injection, schedule: Q04DX003 (ip), vehicle: Klucel (hydroxypropylcellulose) (HPC) 104 % of control | [5] 102 % of control | [6] 96 % of control | [7] 88 % of control

O=C(CC(=O)c1ccc(Cl)cc1)NC(=O)c1ccccc1
inactive: dose: 100.0 mg/kg/injection, schedule: Q01DX001 (ip), vehicle: other 96 % of control | dose: 200.0 mg/kg/injection, schedule: Q01DX001 (ip), vehicle: other 91 % of control | dose: 400.0 mg/kg/injection, schedule: Q01DX001 (ip), vehicle: other 89 % of control

C/C(=C(/CCO)SCC/C(=N/O)c1ccccc1)N(C=O)Cc1cnc(C)nc1N
inactive: [1] 104 % of control | [8] 97 % of control | [9] 93 % of control

CC1(C)CN1Sc1ccc([N+](=O)[O-])cc1 (configuration not stated)
inactive: dose: 25.0 mg/kg/injection, schedule: Q04DX002 (ip), vehicle: Klucel (hydroxypropylcellulose) (HPC) 107 % of control | dose: 50.0 mg/kg/injection, schedule: Q04DX002 (ip), vehicle: Klucel (hydroxypropylcellulose) (HPC) 103 % of control | dose: 100.0 mg/kg/injection, schedule: Q04DX002 (ip), vehicle: Klucel (hydroxypropylcellulose) (HPC) 96 % of control and 107 % of control

Cn1nc(SCc2ccccc2)c(=O)n(C(c2ccccc2)c2ccccc2)c1=O
inactive: dose: 100.0 mg/kg/injection, schedule: Q01DX001 (ip), vehicle: carboxymethylcellulose (CMC) 104 % of control | dose: 200.0 mg/kg/injection, schedule: Q01DX001 (ip), vehicle: carboxymethylcellulose (CMC) 93 % of control

CCCCCCCCCCCCNC
inactive: dose: 12.5 mg/kg/injection, schedule: Q01DX009 (ip), vehicle: saline with Tween-80 92 % of control | dose: 25.0 mg/kg/injection, schedule: Q01DX009 (ip), vehicle: saline with Tween-80 93 % of control | dose: 25.0 mg/kg/injection, schedule: Q04DX003 (ip), vehicle: saline with Tween-80 103 % of control | dose: 50.0 mg/kg/injection, schedule: Q01DX009 (ip), vehicle: saline with Tween-80 91 % of control | dose: 50.0 mg/kg/injection, schedule: Q04DX003 (ip), vehicle: saline with Tween-80 93 % of control | [2] 93 % of control

CCCCCCCC(=O)N1CCCC1C(=O)NCCCCC(=O)O (configuration not stated)
inactive: dose: 25.0 mg/kg/injection, schedule: Q01DX001 (ip), vehicle: saline 95 % of control | dose: 50.0 mg/kg/injection, schedule: Q01DX001 (ip), vehicle: saline 98 % of control | [13] 95 % of control

NN1CC(=O)NC1=O
inactive: [1] 100 % of control | [8] 102 % of control | [9] 100 % of control

CCC(C)C(CCN(CC)CC)(CNC(=O)CN(CC)CC)c1cccc2ccccc12 (configuration not stated)
inactive: [14] 97 % of control

CC12CCCCC1CC(=O)CC2 (configuration not stated)
inactive: dose: 100.0 mg/kg/injection, schedule: Q04DX002 (ip), vehicle: saline with Tween-80 99 % of control | dose: 200.0 mg/kg/injection, schedule: Q04DX002 (ip), vehicle: saline with Tween-80 86 % of control | dose: 400.0 mg/kg/injection, schedule: Q04DX002 (ip), vehicle: saline with Tween-80 96 % of control

O=C1c2ccccc2C(=O)N1CCOc1ccc([N+](=O)[O-])cc1
inactive: dose: 100.0 mg/kg/injection, schedule: Q01DX001 (ip), vehicle: gum acacia 92 % of control | dose: 200.0 mg/kg/injection, schedule: Q01DX001 (ip), vehicle: gum acacia 99 % of control | dose: 400.0 mg/kg/injection, schedule: Q01DX001 (ip), vehicle: gum acacia 92 % of control

NC(=O)N1OCC(N)C1=O (configuration not stated)
inactive: [14] 101 % of control | [1] 108 % of control | dose: 200.0 mg/kg/injection, schedule: Q01DX009 (ip), vehicle: saline 87 % of control | [8] 98 % of control | dose: 400.0 mg/kg/injection, schedule: Q01DX009 (ip), vehicle: saline 95 % of control | [9] 97 % of control

O=C(Nc1ccc(Cl)c(Cl)c1)n1ncc2ccc([N+](=O)[O-])cc21
inactive: [13] 100 % of control | dose: 200.0 mg/kg/injection, schedule: Q01DX001 (ip), vehicle: saline 96 % of control | dose: 400.0 mg/kg/injection, schedule: Q01DX001 (ip), vehicle: saline 100 % of control

CCOC(=O)C(=CNc1ccccc1)C(=O)OCC
inactive: [10] 97 % of control | [11] 90 % of control | [12] 97 % of control
